The NIST ThermoML archive (doi:10.1016/j.jct.2013.06.009)

Legend:
[1] = wn = mass fraction of the nth substance listed; conditions: 101.33 kPa, Liquid, w1 = 0.009; for viscosity: Capillary tube (Ostwald / Ubbelohde) method; for mass density: Vibrating tube method
[2] = 101.33 kPa, Liquid; for viscosity: Capillary tube (Ostwald / Ubbelohde) method; for mass density: Vibrating tube method
[3] = mn = molality of the nth substance listed, in mol/kg; conditions: 101.33 kPa, Liquid, m2 = 0; for viscosity: Capillary tube (Ostwald / Ubbelohde) method; for mass density: Vibrating tube method

[Cl-].[Na+] [sodium chloride] + O
[1]
Conditions | mass density [kg/m3] | viscosity [mPa·s]
278.15 K | 1006.09 | 1.53
283.15 K | 1005.64 | 1.321
288.15 K | 1005.07 | 1.154
293.15 K | 1004.14 | 1.015
298.15 K | 1002.96 | 0.9068
303.15 K | 1001.47 | 0.8105
308.15 K | 999.75 | 0.7363
313.15 K | 997.82 | 0.6641

O [water]
[2]
Conditions | mass density [kg/m3] | viscosity [mPa·s]
278.15 K | 999.96 | 1.521
283.15 K | 999.7 | 1.307
288.15 K | – | 1.135
293.15 K | – | 1.002
298.15 K | – | 0.8903
303.15 K | – | 0.7977
308.15 K | – | 0.719
313.15 K | – | 0.6532

O [water] + CO/N=C(\C(=O)N[C@@H]1C(=O)N2C(C(=O)O)=C(C[N+]3(C)CCCC3)CS[C@H]12)c1csc(N)n1.Cl.[Cl-]
[3]
Conditions | mass density [kg/m3] | viscosity [mPa·s]
278.15 K | 999.96 | 1.521
283.15 K | 999.7 | 1.307
288.15 K | – | 1.135
293.15 K | – | 1.002
298.15 K | – | 0.8903
303.15 K | – | 0.7977
308.15 K | – | 0.719
313.15 K | – | 0.6532
